Experimental data as given in US12527818B2, “Platinum-based chemotherapy, mast binding agents, glucocorticoid receptor (GR) binding agents, and/or HSP90 binding agents for uses in treating cancer” (Emory University, priority 2019, dated 2026).
“Also recorded” adds a separate entry of the source. One block for each molecule: values may come before it. Peptide text beside a SMILES is read from it. * marks the point of attachment. Cbz = O=C(OCc1ccccc1)*

Legend:
MAST1 [1] = assay: MAST1 protein level in cancer cells upon 17-AAG treatment; format: cell-based, human
Protocol: (§1) Proteins that interact with MAST1 in cells were investigated through 2-dimensional (2D) gel electrophoresis-based proteomic profiling. GST or GST-fused MAST1 was pulled down from human 293T cells. The protein captured by GST-MAST1 but not by GST alone was excised from the 2D gel. Through mass spectrometry-based (MS-based) proteomic analysis, hsp90B was identified as a potential binding partner of MAST1. […] Experiments were performed to determine whether the interaction is limited to the hsp90B isoform by comparing the interaction between MAST1 and hsp90B or hsp90A. Hsp90A, another isoform of hsp90, also binds to MAST1 in cisplatin-resistant cancer cells. Although hsp90A binds to MAST1 in cisplatin-resistant cancer cells, the interaction was weaker compared with hsp90B. […] Experiments were performed to determine whether treatment with 17-AAG, a selective inhibitor of hsp90, alters MAST1 protein levels in cells.
Through a MS-based proteomic analysis, it was identified that MAST1 is specifically ubiquitinated at lysine residues K317 and K545 upon hsp90 inhibition. To investigate whether these 2 residues are the main ubiquitination sites of MAST1 that mediate proteasomal degradation upon hsp90 inhibition, the lysine-to-arginine mutant forms of MAST1, K317R, K545R, and the double KR mutant K317R/K545R (2KR) were generated.
(§2) Experiments were performed to determine whether ubiquitination of MAST1 at K317 and K545 upon hsp90 inhibition is involved in MAST1-mediated cisplatin-resistant cancer cell proliferation and tumor growth. […] The effect of MAST1 WT or 2KR was monitored in cells with MAST1 knockdown. […] This finding was further validated in vivo.

AKT or cRaf = assay: Protein levels of other hsp90 client proteins upon 17-AAG treatment; format: cell-based, human; details: same doses of 17-AAG as diminish MAST1
Protocol: as §1
(§3) The ubiquitination status of MAST1 in the presence and absence of hsp90 was assessed. […] This was further confirmed in cisplatin-resistant cancer cells.

MAST1 mRNA = MAST1 mRNA expression upon 17-AAG treatment; format: cell-based, human
[2] = tested on: cisplatin-resistant cancer cells; assay: Cisplatin response and cell viability of cisplatin-resistant cancer cells with 17-AAG; format: cell-based, human
Protocol: (§4) These in vitro observations were confirmed in vivo.
as §2

[3] = tested on: KB-3-1cisR xenograft tumors; assay: Xenograft mice bearing KB-3-1cisR tumors treated with 17-AAG and cisplatin; format: in vivo
Protocol: Mice were treated with cisplatin (5 mg/kg) and 17-AAG (50 mg/kg) from 5 days after xenograft.
as §4, §2

MEK1 [4] = assay: MEK1 activity in cisplatin-resistant cells upon 17-AAG treatment; format: cell-based, human; details: MAST1 WT
Protocol: as §2

hsp90A = hsp90A (Homo sapiens, UniProt P07900)
hsp90B = hsp90B (Homo sapiens, UniProt P08238)
MAST1 [5] = assay: MAST1 ubiquitination and degradation with proteasome inhibitor; format: cell-based, human
Protocol: as §3

MAST1 [6] = assay: MAST1 induction by cisplatin in cancer cell lines; format: cell-based, human; details: KB-3-1, A549, and A2780 cell lines
Protocol: (§5) Experiments were performed to determine whether MAST1 is induced by cisplatin treatment. Cell line-based studies indicate that MAST1 is increased upon cisplatin treatment in three cancer cell lines, KB-3-1, A549, and A2780. To validate this observation in vivo, cisplatin-resistant tumors were established by treating KB-3-1 bearing mice with sub-effective doses of cisplatin. The MAST1 gene was induced in xenografted tumors after cisplatin administration in mice. […] Cisplatin-resistant refers to patients with tumor recurrence within two years of cisplatin or carboplatin-based chemotherapy.

96 cellular TFs = assay: Transcription Factor Activation Profiling Array; format: cell-based, human; details: cisplatin treated vs nontreated KB-3-1 cells
Protocol: (§6) The Transcription Factor Activation Profiling Array detects activities of 96 cellular TFs, including HIF1, p53, and NF-kB, which are essential in regulating cellular gene expression. Among the 96 TFs, 6 were activated more than 1.8-fold when cells were treated with cisplatin, including GR/[…] (PR), NFAT, ATF2, CAR, and CBF. To investigate whether any of these TFs activate the MAST1 promoter, these 6 TFs were knocked down in KB-3-1 cells and a MAST1 promoter reporter activity assay was performed in the presence of cisplatin. Knockdown of GR but not other TFs attenuated MAST1 promoter activity. In addition, modulation of GR affected MAST1 promoter activity in the presence of cisplatin in cancer cells. Target downregulation or overexpression of GR abolished or enhanced MAST1 promoter activity in a cisplatin dose-dependent manner in KB-3-1 cells. In line with the changes seen in MAST1 mRNA, MAST1 protein level correlated with GR level in cancer cells (FIG. 3D).

GR = GR intracellular location by immunofluorescence staining; format: cell-based, human; details: KB-3-1 cancer cell line
From the text: To explore the molecular mechanism by which the transcription factor activity of GR is enhanced by cisplatin treatment, the intracellular location of GR in cisplatin-treated cells was investigated. GR resides predominantly in the cytoplasm as part of a heterooligomeric complex of HSP 40, 70, and 90 and other proteins. Binding to its agonist ligand changes the conformation of GR, which dissociates from the HSPs and possibly other protein factors, and translocates into the nucleus. The nuclear translocated GR is considered to be activated GR. Thus, experiment were performed to determine whether cisplatin treatment changes the cellular location of GR from the cytosol to the nucleus in cancer cells. […] This observation was confirmed in vivo in xenograft mice. […] Furthermore, the translocation of GR was found in paired primary HNSCC patient tumors. GR was located mainly in the cytosol in tumors collected from patients before cisplatin or carboplatin therapy, whereas the GR was predominantly stained in the nucleus in tumors collected from patients after the therapy. These experiments indicate that cisplatin treatment activates GR by translocating it to the nucleus in cancer cells.

[7] = tested on: KB-3-1 xenografted tumors; assay: Xenograft mice bearing KB-3-1 tumors treated with cisplatin; format: in vivo
Protocol: as §5
To explore the molecular mechanism by which the transcription factor activity of GR is enhanced by cisplatin treatment, the intracellular location of GR in cisplatin-treated cells was investigated. GR resides predominantly in the cytoplasm as part of a heterooligomeric complex of HSP 40, 70, and 90 and other proteins. Binding to its agonist ligand changes the conformation of GR, which dissociates from the HSPs and possibly other protein factors, and translocates into the nucleus. The nuclear translocated GR is considered to be activated GR. Thus, experiment were performed to determine whether cisplatin treatment changes the cellular location of GR from the cytosol to the nucleus in cancer cells. […] This observation was confirmed in vivo in xenograft mice. […]

MAST1 promoter = MAST1 promoter reporter activity assay; format: cell-based, human; details: pMAST1-luc reporter
Protocol: as §6
GR binds to the glucocorticoid response element (GRE) on DNA within the promoter region and regulates genes. A GRE was identified within the MAST1 promoter sequence at −44 to −58. […]

KB-3-1 cells = assay: CellTiter-Glo Luminescent Cell Viability assay, GR antagonist or agonist with cisplatin; format: cell-based, human
Protocol: (§7) Loss of GR sensitizes cells to cisplatin. GR was inhibited by shRNA (top) or by antagonist (bottom) in the presence or absence of cisplatin. Cell viability and MEK activity was measured by CellTiter-Glo™ Luminescent Cell Viability assay and p-MEK1 S217/S221 blot, respectively. Cisplatin: 1 μg/ml, Mifepristone: 10 μM.
(§8) GR was enhanced by overexpression (top) or agonist (bottom) and cell viability and MEK1 activity was measured, cisplatin: 3 μg/ml, dexamethasone: 0.5 μM.
(§9) To investigate whether GR contributes to cisplatin resistance in cancer cells, GR was genetically or pharmacologically modulated and changes in cisplatin-resistant cancer cell proliferation as well as the activity of MEK1, which is the predominant substrate of MAST1, was monitored. […] Exogenous overexpression of myc tagged MAST1 restored the attenuated cisplatin-resistant cell growth and MEK1 activity in KB-3-1 cells with GR inhibition either by GR shRNA or GR antagonist mifepristone (FIG. 2A). […] In contrast, reduction of MAST1 by shRNA abolished the elevated cisplatin resistant cancer cell proliferation and MEK1 activity in KB-3-1 cells with activated GR either by flag-GR overexpression or GR agonist dexamethasone (FIG. 2C). Knockdown of MAST1 dramatically attenuated cisplatin resistant tumor growth in xenograft mice bearing flag-GR stably overexpressed KB-3-1 cells (FIG. 2D).

MEK1 [8] = assay: MEK1 activity by p-MEK1 S217/S221 blot, GR antagonist or agonist with cisplatin; format: cell-based, human; details: KB-3-1 cells
Protocol: as §7, §8, §9

[9] = tested on: ovarian cancer and head and neck cancer PDX; assay: Tumor volume in PDX mice treated with cisplatin, dexamethasone and lestaurtinib; format: in vivo; details: 5 mg/kg cisplatin, 0.1 mg/kg dexamethasone twice/week, 20 mg/kg lestaurtinib daily
Protocol: Tumor volumes were measured by caliper.
Therefore, we performed pilot experiments in vitro and in vivo to examine the concept.

GR, MAST1 = assay: Dexamethasone effect on GR activity, MAST1 expression and cisplatin-resistant tumor growth; details: treatment with dexamethasone
[10] = cisplatin 3 μg/ml, dexamethasone 0.5 μM
[11] = cisplatin 1 μg/ml, mifepristone 10 μM

Chain of hsp90B (P08238 whole entry): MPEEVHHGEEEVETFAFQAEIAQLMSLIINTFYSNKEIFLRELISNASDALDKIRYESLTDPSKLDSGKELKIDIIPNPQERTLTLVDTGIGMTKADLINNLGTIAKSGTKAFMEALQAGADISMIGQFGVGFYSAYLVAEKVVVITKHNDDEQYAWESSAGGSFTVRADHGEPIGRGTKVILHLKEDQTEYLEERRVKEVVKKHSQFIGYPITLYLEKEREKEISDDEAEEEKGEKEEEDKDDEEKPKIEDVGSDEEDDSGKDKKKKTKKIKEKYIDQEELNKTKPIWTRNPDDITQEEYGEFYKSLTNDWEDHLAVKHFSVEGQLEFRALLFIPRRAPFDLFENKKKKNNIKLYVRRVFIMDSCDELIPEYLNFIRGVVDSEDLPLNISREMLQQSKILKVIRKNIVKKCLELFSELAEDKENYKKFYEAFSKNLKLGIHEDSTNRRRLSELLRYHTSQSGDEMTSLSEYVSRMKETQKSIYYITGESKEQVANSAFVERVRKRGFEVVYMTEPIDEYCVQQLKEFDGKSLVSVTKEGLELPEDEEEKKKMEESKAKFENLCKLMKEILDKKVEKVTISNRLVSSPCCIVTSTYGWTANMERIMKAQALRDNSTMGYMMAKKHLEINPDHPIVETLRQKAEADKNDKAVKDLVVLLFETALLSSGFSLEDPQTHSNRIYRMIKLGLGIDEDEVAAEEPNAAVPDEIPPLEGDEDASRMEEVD

binding to hsp90A (SPR) (hsp90A): binds to both hsp90A and hsp90B
binding to hsp90B (SPR) (hsp90B): binds to both hsp90A and hsp90B
SMILES: C=CCNC1=C2CC(C)CC(OC)C(O)C(C)C=C(C)C(OC(N)=O)C(OC)C=CC=C(C)C(=O)NC(=CC1=O)C2=O (centres unmarked) [17-AAG, 19-(allylamino)-13-hydroxy-8,14-dimethoxy-4,10,12,16-tetramethyl-3,20,22-trioxo-2-azabicyclo[16.3.1]docosa-1(21),4,6,10,18-pentaen-9-yl carbamate]
2KR MAST1 protein (MAST1 [1]; MAST1 K317R/K545R (2KR)): remained intact
wild-type (WT) MAST1 protein (MAST1 [1]; MAST1 WT): degraded upon 17-AAG treatment in a dose-dependent manner
MAST1 protein levels (MAST1 [1]; cancer cells): diminished MAST1 protein levels in a dose-dependent manner; also recorded: decreased the level of MAST1
protein levels of hsp90 client proteins AKT or cRaf (AKT or cRaf): insufficient to decrease
MAST1 mRNA expression levels (MAST1 mRNA): remained unchanged
cell viability and cisplatin resistance, cells expressing MAST1 2KR ([2]; MAST1 2KR, in the presence of cisplatin): no significant decrease in cell viability and cisplatin resistance
cell viability and cisplatin resistance, cells expressing MAST1 WT ([2]; MAST1 WT, in the presence of cisplatin): sensitive to 17-AAG treatment
cisplatin resistance of cisplatin-resistant cancer cells ([2]; with cisplatin): significantly sensitized cisplatin-resistant cancer cells to cisplatin
tumor growth, MAST1 2KR xenograft tumors ([3]; KB-3-1cisR MAST1 2KR, cisplatin (5 mg/kg) and 17-AAG (50 mg/kg)): resistant to these effects of 17-AAG treatment
tumor growth, MAST1 WT xenograft tumors ([3]; KB-3-1cisR MAST1 WT, cisplatin (5 mg/kg) and 17-AAG (50 mg/kg)): attenuated tumor growth upon cisplatin exposure
MAST1 protein level in xenograft tumors ([3]; xenograft mice, with cisplatin): decreased
xenograft tumor response to cisplatin ([3]; xenograft mice, with cisplatin): sensitized xenograft tumors to cisplatin
activity of the downstream substrate MEK1 (MEK1 [4]): attenuated activity of the downstream substrate MEK1

SMILES: CC(C)C[C@@H](C=O)NC(=O)[C@H](CC(C)C)NC(=O)[C@H](CC(C)C)NC(=O)OCc1ccccc1 [MG-132] (Cbz-Leu-Leu-Leu-aldehyde)
17-AAG-mediated MAST1 degradation (MAST1 [5]; 293T cells): prevented 17-AAG-mediated MAST1 degradation
MAST1 ubiquitination (MAST1 [5]; proteasome inhibitor treatment): led to MAST1 ubiquitination

SMILES: N.N.[Cl][Pt][Cl] [cisplatin]
MAST1 level upon cisplatin treatment (MAST1 [6]): increased
transcription factor activation (6 of 96 TFs incl. GR/PR, NFAT, ATF2, CAR, CBF) (96 cellular TFs): more than 1.8 fold
GR cellular location (GR): translocated from the cytosol to the nucleus
GR location in xenograft tumors ([7]; administration of cisplatin): nuclear translocation of GR
MAST1 gene in xenografted tumors ([7]; after cisplatin administration in mice): induced
WT MAST1 promoter activity (MAST1 promoter): induced WT MAST1 promoter activity

SMILES: CC1CC2C3CCC4=CC(=O)C=CC4(C)C3(F)C(O)CC2(C)C1(O)C(=O)CO (centres unmarked) [dexamethasone, 9-fluoro-11,17-dihydroxy-17-(2-hydroxyacetyl)-10,13,16-trimethyl-6,7,8,9,10,11,12,13,14,15,16,17-dodecahydro-3H-cyclopenta [a]phenanthren-3-one]
cisplatin response (cell viability) (KB-3-1 cells; [10]): conferred cisplatin resistance to cancer cells
MEK1 activity (MEK1 [8]; [10]): reactivation of MEK1
tumor growth (tumor volume) [9]: abolished the cisplatin effect
GR activity, MAST1 expression, cisplatin-resistant tumor growth (GR, MAST1): enhanced GR activity, MAST1 expression, and cisplatin-resistant tumor growth

SMILES: CC#CC1(O)CCC2C3CCC4=CC(=O)CCC4=C3C(c3ccc(N(C)C)cc3)CC21C (centres unmarked) [mifepristone, 11-(4-(dimethylamino)phenyl)-17-hydroxy-13-methyl-17-(prop-1-yn-1-yl)-1,2,6,7,8,11,12,13,14,15, 16,17-dodecahydro-3H-cyclopenta[a]phenanthren-3-one]
cisplatin response (cell viability) (KB-3-1 cells; [11]): sensitized cancer cells to cisplatin treatment
MEK1 activity (MEK1 phosphorylation at S217/S221) (MEK1 [8]; [11]): attenuated MEK1 activity
